Results reported in the supplement of paper PMC11061612.

Legend:
Paclitaxel = compound: CC(=O)O[C@H]1C(=O)[C@@]2(C)[C@H]([C@H](OC(=O)c3ccccc3)[C@]3(O)C[C@H](OC(=O)[C@H](O)[C@@H](NC(=O)c4ccccc4)c4ccccc4)C(C)=C1C3(C)C)[C@]1(OC(C)=O)CO[C@@H]1C[C@@H]2O [Paclitaxel]; settings: max 3 µM
Method in brief: (§1)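 Cancer cell lines were dosed for 72 hours (final DMSO typically 0.2%) after 24 hours at 37°C and 5% CO2 in 1536-well plates containing 7.5 μl DMEM/F12 or RPMI with 10% FBS. Viability came from CellTiter-Glo 2.0 luminescence, scaled between blank-well and DMSO-well means, and dose responses were fitted to a two-parameter logistic curve with a non-linear mixed effects model. The single-agent IC50 was obtained from this fit.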

Gefitinib = compound: COc1cc2ncnc(Nc3ccc(F)c(Cl)c3)c2cc1OCCCN1CCOCC1 [Gefitinib]; settings: max 10 µM
Method in brief: as §1

Gemcitabine = compound: Nc1ccn([C@@H]2O[C@H](CO)[C@@H](O)C2(F)F)c(=O)n1 [Gemcitabine]; settings: max 0.3 µM
Method in brief: as §1

AZD8186 = compound: C[C@@H](Nc1cc(F)cc(F)c1)c1cc(C(=O)N(C)C)cc2c(=O)cc(N3CCOCC3)oc12 [AZD8186]; settings: max 10 µM
Method in brief: as §1

SN-38 = compound: CCc1c2c(nc3ccc(O)cc13)-c1cc3c(c(=O)n1C2)COC(=O)[C@]3(O)CC [SN-38]; settings: max 0.3 µM
Method in brief: as §1

Etoposide = compound: COc1cc([C@@H]2c3cc4c(cc3[C@@H](O[C@@H]3O[C@@H]5CO[C@@H](C)O[C@H]5[C@H](O)[C@H]3O)[C@H]3COC(=O)[C@H]23)OCO4)cc(OC)c1O [Etoposide]; settings: max 10 µM
Method in brief: as §1

Crizotinib = compound: C[C@@H](Oc1cc(-c2cnn(C3CCNCC3)c2)cnc1N)c1c(Cl)ccc(F)c1Cl [Crizotinib]; settings: max 10 µM
Method in brief: as §1

AZD5153 = compound: COc1nnc2ccc(N3CCC(c4ccc(OCCN5CCN(C)C(=O)[C@H]5C)cc4)CC3)nn12 [AZD5153]; settings: max 1 µM
Method in brief: as §1

Alisertib = compound: COc1cc(Nc2ncc3c(n2)-c2ccc(Cl)cc2C(c2c(F)cccc2OC)=NC3)ccc1C(=O)O [Alisertib]; settings: max 10 µM
Method in brief: as §1

Venetoclax = compound: CC1(C)CCC(CN2CCN(c3ccc(C(=O)NS(=O)(=O)c4ccc(NCC5CCOCC5)c([N+](=O)[O-])c4)c(Oc4cnc5[nH]ccc5c4)c3)CC2)=C(c2ccc(Cl)cc2)C1 [Venetoclax]; settings: max 1 µM
Method in brief: as §1

SRA737 = compound: N#Cc1cnc(Nc2cc(NC[C@H]3CNCCO3)c(C(F)(F)F)cn2)cn1 [SRA737]; settings: max 10 µM
Method in brief: as §1

AZD5363 = compound: C1CN(CCC1(C(=O)N[C@@H](CCO)C2=CC=C(C=C2)Cl)N)C3=NC=NC4=C3C=CN4 [AZD5363]; settings: max 10 µM
Method in brief: as §1

SG3199 = compound: CC1=CN2[C@@H](C1)C=NC3=CC(=C(C=C3C2=O)OC)OCCCCCOC4=C(C=C5C(=C4)N=C[C@@H]6CC(=CN6C5=O)C)OC [SG3199]; settings: max 0.001 µM
Method in brief: as §1

Olaparib = compound: O=C(c1cc(Cc2n[nH]c(=O)c3ccccc23)ccc1F)N1CCN(C(=O)C2CC2)CC1 [Olaparib]; settings: max 10 µM
Method in brief: as §1

Savolitinib = compound: C[C@@H](c1ccc2nccn2c1)n1nnc2ncc(-c3cnn(C)c3)nc21 [Savolitinib]; settings: max 1 µM
Method in brief: as §1

5-Fluorouracil = compound: O=c1[nH]cc(F)c(=O)[nH]1 [5-Fluorouracil]; settings: max 20 µM
Method in brief: as §1

Selumetinib = compound: Cn1cnc2c(F)c(Nc3ccc(Br)cc3Cl)c(C(=O)NOCCO)cc21 [Selumetinib]; settings: max 10 µM
Method in brief: as §1

AZD7648 = compound: Cc1cc2ncnn2cc1Nc1ncc2c(n1)n(C1CCOCC1)c(=O)n2C [AZD7648]; settings: max 10 µM
Method in brief: as §1

AZD1390 = compound: CC(C)n1c(=O)n(C)c2cnc3cc(F)c(-c4ccc(OCCCN5CCCCC5)nc4)cc3c21 [AZD1390]; settings: max 0.3 µM
Method in brief: as §1

AZD4320 = compound: CN(CC[C@H](CSC1=CC=CC=C1)NC2=C(C=C(C=C2)S(=O)(=O)NC(=O)C3=CC=C(C=C3)N4CCC(CC4)[C@H](C5=CC=CC=C5C6=CC=C(C=C6)Cl)O)S(=O)(=O)C(F)(F)F)CCO [AZD4320]; settings: max 1 µM
Method in brief: as §1

AZD5991 = compound: Cc1c2c(nn1C)CSCc1cc(n(C)n1)CSc1cc(c3ccccc3c1)OCCCc1c(C(=O)O)n(C)c3c-2c(Cl)ccc13 [AZD5991]; settings: max 1 µM
Method in brief: as §1

MK-2206 = compound: NC1(c2ccc(-c3nc4ccn5c(=O)[nH]nc5c4cc3-c3ccccc3)cc2)CCC1 [MK-2206]; settings: max 10 µM
Method in brief: as §1

Doxorubicin = compound: COc1cccc2c1C(=O)c1c(O)c3c(c(O)c1C2=O)C[C@@](O)(C(=O)CO)C[C@@H]3O[C@H]1C[C@H](N)[C@H](O)[C@H](C)O1 [Doxorubicin]; settings: max 1 µM
Method in brief: as §1

AZD2811 = compound: CCN(CCO)CCCOc1ccc2c(Nc3cc(CC(=O)Nc4cccc(F)c4)[nH]n3)ncnc2c1 [AZD2811]; settings: max 1 µM
Method in brief: as §1

Dasatinib = compound: CC1=C(C(=CC=C1)Cl)NC(=O)C2=CN=C(S2)NC3=CC(=NC(=N3)C)N4CCN(CC4)CCO [Dasatinib]; settings: max 2 µM
Method in brief: as §1

Taselisib = compound: Cc1nc(-c2cn3c(n2)-c2ccc(-c4cnn(C(C)(C)C(N)=O)c4)cc2OCC3)n(C(C)C)n1 [Taselisib]; settings: max 10 µM
Method in brief: as §1

Palbociclib = compound: CC(=O)c1c(C)c2cnc(Nc3ccc(N4CCNCC4)cn3)nc2n(C2CCCC2)c1=O [Palbociclib]; settings: max 10 µM
Method in brief: as §1

Carboplatin = compound: C1CC(C1)(C(=O)[O-])C(=O)[O-].N.N.[Pt+2] [Carboplatin]; settings: max 10 µM
Method in brief: as §1

Trametinib = compound: CC(=O)Nc1cccc(-n2c(=O)n(C3CC3)c(=O)c3c(Nc4ccc(I)cc4F)n(C)c(=O)c(C)c32)c1 [Trametinib]; settings: max 1 µM
Method in brief: as §1

Lapatinib = compound: CS(=O)(=O)CCNCc1ccc(-c2ccc3ncnc(Nc4ccc(OCc5cccc(F)c5)c(Cl)c4)c3c2)o1 [Lapatinib]; settings: max 10 µM
Method in brief: as §1

Prexasertib = compound: COc1cccc(OCCCN)c1-c1cc(Nc2cnc(C#N)cn2)n[nH]1 [Prexasertib]; settings: max 1 µM
Method in brief: as §1

AZD1775 = compound: C=CCn1c(=O)c2cnc(Nc3ccc(N4CCN(C)CC4)cc3)nc2n1-c1cccc(C(C)(C)O)n1 [AZD1775]; settings: max 3 µM
Method in brief: as §1

[1] = compound: O=C(Nc1ccc2[nH]nc(-c3ccncc3)c2c1)[C@@H]1CCN(CC(=O)N2CCN(c3ccc(-c4ncccn4)cc3)CC2)C1; settings: max 5 µM
Method in brief: as §1

AZD6738 = compound: C[C@@H]1COCCN1C2=NC(=NC(=C2)C3(CC3)[S@](=N)(=O)C)C4=C5C=CNC5=NC=C4 [AZD6738]; settings: max 10 µM
Method in brief: as §1

AZD0156 = compound: CN(C)CCCOc1ccc(-c2ccc3ncc4c(c3c2)n(C2CCOCC2)c(=O)n4C)cn1 [AZD0156]; settings: max 3 µM
Method in brief: as §1

Cell Line | IC50, cell viability 72 h (Paclitaxel) [nM] | IC50, cell viability 72 h (Gefitinib) [nM] | IC50, cell viability 72 h (Gemcitabine) [nM] | IC50, cell viability 72 h (AZD8186) [nM] | IC50, cell viability 72 h (SN-38) [nM] | IC50, cell viability 72 h (Etoposide) [nM] | IC50, cell viability 72 h (Crizotinib) [nM] | IC50, cell viability 72 h (AZD5153) [nM] | IC50, cell viability 72 h (Alisertib) [nM] | IC50, cell viability 72 h (Venetoclax) [nM] | IC50, cell viability 72 h (SRA737) [nM] | IC50, cell viability 72 h (AZD5363) [nM] | IC50, cell viability 72 h (SG3199) [nM] | IC50, cell viability 72 h (Olaparib) [nM] | IC50, cell viability 72 h (Savolitinib) [nM] | IC50, cell viability 72 h (5-Fluorouracil) [nM] | IC50, cell viability 72 h (Selumetinib) [nM] | IC50, cell viability 72 h (AZD7648) [nM] | IC50, cell viability 72 h (AZD1390) [nM] | IC50, cell viability 72 h (AZD4320) [nM] | IC50, cell viability 72 h (AZD5991) [nM] | IC50, cell viability 72 h (MK-2206) [nM] | IC50, cell viability 72 h (Doxorubicin) [nM] | IC50, cell viability 72 h (AZD2811) [nM] | IC50, cell viability 72 h (Dasatinib) [nM] | IC50, cell viability 72 h (Taselisib) [nM] | IC50, cell viability 72 h (Palbociclib) [nM] | IC50, cell viability 72 h (Carboplatin) [nM] | IC50, cell viability 72 h (Trametinib) [nM] | IC50, cell viability 72 h (Lapatinib) [nM] | IC50, cell viability 72 h (Prexasertib) [nM] | IC50, cell viability 72 h (AZD1775) [nM] | IC50, cell viability 72 h [1] [nM] | IC50, cell viability 72 h (AZD6738) [nM] | IC50, cell viability 72 h (AZD0156) [nM]
HCC-78 (Lung Adenocarcinoma) | > 3000 | > 10000 | 32.7 | > 10000 | 7.04 | 2350 | 9580 | > 1000 | > 10000 | > 1000 | > 10000 | > 10000 | > 1 | > 10000 | > 1000 | > 20000 | > 10000 | > 10000 | > 300 | > 1000 | > 1000 | > 10000 | 493 | > 1000 | > 2000 | 5890 | > 10000 | > 10000 | > 1000 | > 10000 | 99.6 | 1380 | > 5000 | > 10000 | > 3000
HO-1-N-1 (Oral Cavity Carcinoma) | < 3 | 8370 | 6.22 | > 10000 | 4.4 | 1260 | 5580 | 202 | 68.7 | > 1000 | > 10000 | > 10000 | > 1 | > 10000 | > 1000 | 17600 | > 10000 | > 10000 | > 300 | > 1000 | 788 | > 10000 | 84.2 | 409 | 581 | 1960 | > 10000 | > 10000 | 417 | 7300 | 60.1 | 1520 | 2260 | 5590 | > 3000
